Results as given in article PMC5296257 (Bioorganic & medicinal chemistry letters, 2017).

Key:
[1] = Mammalian cytotoxicity on non-immortalized IMR90 cells; type: cell-based; conditions: human
[2] = test system: T. brucei bloodstream form (BSF); assay: T. brucei bloodstream form parasite viability; type: cell-based, Trypanosoma brucei; conditions: SI = IMR90 EC50/parasite EC50
[3] = test system: L. amazonensis promastigote form parasites; assay: L. amazonensis promastigote viability; type: cell-based; conditions: SI = IMR90 EC50/parasite EC50
[4] = test system: C/EBP-homologous protein (CHOP); conditions: cited from earlier work
[5] = test system: T. brucei BSF 90-13 parasites; assay: Annexin V-FITC labeling; type: cell-based; conditions: BSF trypanosomes, 6 h exposure at compound's EC50 value; control line 463

O=C(Nc1ccc(S(=O)(=O)N2CCOCC2)cc1)c1ccco1 [Compound 14]
EC50 [1]: > 25 µM

N=C1CCN(S(=O)(=O)c2ccc(NC(=O)c3ccc([N+](=O)[O-])o3)cc2)CC1 [Compound 10]
EC50 [1]: > 25 µM | T. brucei selectivity index, SI [2]: > 34 | L. amazonensis selectivity index, SI [3]: > 2

O=C(Nc1ccc(S(=O)(=O)c2ccccc2)cc1)c1ccc([N+](=O)[O-])o1 [Compound 13]
EC50 [1]: > 25 µM | T. brucei selectivity index, SI [2]: > 227 | L. amazonensis selectivity index, SI [3]: > 6

CC1(C)CCN(S(=O)(=O)c2ccc(NC(=O)c3ccc(C(F)(F)F)o3)cc2)CC1 [Compound 20]
EC50 [1]: > 25 µM | T. brucei selectivity index, SI [2]: > 3 | L. amazonensis selectivity index, SI [3]: > 2 | mammalian CHOP activity [4]: no mammalian CHOP activity

O=C(Nc1ccc(S(=O)(=O)N2CCC3(CCCCC3)CC2)cc1)c1ccc([N+](=O)[O-])o1 [Compound 6]
EC50 [1]: > 25 µM | T. brucei selectivity index, SI [2]: > 833 | L. amazonensis selectivity index, SI [3]: > 17

O=C(Nc1cccc(S(=O)(=O)N2CCOCC2)c1)c1ccc([N+](=O)[O-])o1 [Compound 29]
EC50 [1]: > 25 µM | T. brucei selectivity index, SI [2]: > 17 | L. amazonensis selectivity index, SI [3]: > 28

CC1(C)CCN(S(=O)(=O)c2cccc(NC(=O)c3ccc([N+](=O)[O-])s3)c2)CC1 [Compound 25]
EC50 [1]: > 25 µM | T. brucei selectivity index, SI [2]: > 556 | L. amazonensis selectivity index, SI [3]: > 19

CC1(C)CCN(S(=O)(=O)c2ccc(NC(=O)c3ccc([N+](=O)[O-])s3)cc2)CC1 [Compound 22]
EC50 [1]: > 25 µM | T. brucei selectivity index, SI [2]: > 2500 | L. amazonensis selectivity index, SI [3]: > 250

O=C(Nc1ccc(S(=O)(=O)N2CCOCC2)cc1)c1ccccc1 [Compound 16]
EC50 [1]: > 25 µM

O=C(Nc1ccc(S(=O)(=O)N2CCOCC2)cc1)c1ccc([N+](=O)[O-])o1 [Compound 1]
EC50 [1]: > 25 µM | T. brucei selectivity index, SI [2]: > 54 | L. amazonensis selectivity index, SI [3]: > 8

CC1(C)CCN(S(=O)(=O)c2ccc(NC(=O)c3ccc([N+](=O)[O-])o3)cc2)CC1 [Compound 4]
EC50 [1]: > 25 µM | T. brucei selectivity index, SI [2]: > 278 | L. amazonensis selectivity index, SI [3]: > 89

O=C(Nc1ccc(S(=O)(=O)N2CCC(Cl)CC2)cc1)c1ccc([N+](=O)[O-])o1 [Compound 8]
EC50 [1]: > 25 µM | T. brucei selectivity index, SI [2]: > 313 | L. amazonensis selectivity index, SI [3]: > 3

Cc1ccc(C(=O)Nc2ccc(S(=O)(=O)N3CCOCC3)cc2)o1 [Compound 17]
EC50 [1]: > 25 µM

CC1(C)CCN(S(=O)(=O)c2cccc(NC(=O)c3cccc([N+](=O)[O-])c3)c2)CC1 [Compound 28]
EC50 [1]: > 25 µM | T. brucei selectivity index, SI [2]: > 2 | L. amazonensis selectivity index, SI [3]: > 8

O=C(Nc1ccc(S(=O)(=O)N2CCC(F)CC2)cc1)c1ccc([N+](=O)[O-])o1 [Compound 9]
EC50 [1]: > 25 µM | T. brucei selectivity index, SI [2]: > 60 | L. amazonensis selectivity index, SI [3]: > 3

CC1CCN(S(=O)(=O)c2ccc(NC(=O)c3ccc([N+](=O)[O-])o3)cc2)CC1 [Compound 3]
EC50 [1]: > 25 µM | T. brucei selectivity index, SI [2]: > 208 | L. amazonensis selectivity index, SI [3]: > 3

CC1(C)CCN(S(=O)(=O)c2cccc(NC(=O)c3ccco3)c2)CC1 [Compound 27]
EC50 [1]: > 25 µM | T. brucei selectivity index, SI [2]: > 5 | L. amazonensis selectivity index, SI [3]: > 21

O=C(Nc1ccc(S(=O)(=O)N2CCOCC2)cc1)c1ccc([N+](=O)[O-])cc1 [Compound 18]
EC50 [1]: > 25 µM

CC(C)(C)C1CCN(S(=O)(=O)c2ccc(NC(=O)c3ccc([N+](=O)[O-])s3)cc2)CC1 [Compound 23]
EC50 [1]: > 25 µM | T. brucei selectivity index, SI [2]: > 833 | L. amazonensis selectivity index, SI [3]: > 250

CC1(C)CCN(S(=O)(=O)c2cccc(NC(=O)c3ccc([N+](=O)[O-])o3)c2)CC1 [Compound 26]
EC50 [1]: > 25 µM | T. brucei selectivity index, SI [2]: > 78 | L. amazonensis selectivity index, SI [3]: > 250

O=C(Nc1ccc(S(=O)(=O)C2=CCOC=C2)cc1)c1ccc([N+](=O)[O-])o1 [Compound 12]
EC50 [1]: > 25 µM | T. brucei selectivity index, SI [2]: > 47 | L. amazonensis selectivity index, SI [3]: > 83

O=C(Nc1ccc(S(=O)(=O)N2CCC3(CCCCC3)CC2)cc1)c1ccc([N+](=O)[O-])s1 [Compound 24]
EC50 [1]: > 25 µM | T. brucei selectivity index, SI [2]: > 1250 | L. amazonensis selectivity index, SI [3]: > 250

CC1(C)CCN(S(=O)(=O)c2ccc(NC(=O)c3cccc([N+](=O)[O-])c3)cc2)CC1 [Compound 19]
EC50 [1]: > 25 µM | T. brucei selectivity index, SI [2]: > 4 | L. amazonensis selectivity index, SI [3]: > 2 | mammalian CHOP activity [4]: no mammalian CHOP activity

O=C(Nc1ccc(S(=O)(=O)N2CCCCC2)cc1)c1ccc([N+](=O)[O-])o1 [Compound 2]
EC50 [1]: > 25 µM | T. brucei selectivity index, SI [2]: >114 | L. amazonensis selectivity index, SI [3]: > 2

O=C(Nc1ccc(S(=O)(=O)N2CCOCC2)cc1)c1cccs1 [Compound 15]
EC50 [1]: > 25 µM

O=C(Nc1ccc(S(=O)(=O)N2CCOCC2)cc1)c1ccc([N+](=O)[O-])s1 [Compound 21]
EC50 [1]: > 25 µM | T. brucei selectivity index, SI [2]: > 417 | L. amazonensis selectivity index, SI [3]: > 19

O=C(Nc1ccc(S(=O)(=O)C2CCCCC2)cc1)c1ccc([N+](=O)[O-])o1 [Compound 11]
EC50 [1]: > 25 µM | T. brucei selectivity index, SI [2]: > 51 | L. amazonensis selectivity index, SI [3]: > 16

CC(C)(C)C1CCN(S(=O)(=O)c2ccc(NC(=O)c3ccc([N+](=O)[O-])o3)cc2)CC1 [Compound 5]
EC50 [1]: > 25 µM | T. brucei selectivity index, SI [2]: > 833 | L. amazonensis selectivity index, SI [3]: > 18 | Annexin-V labeling, relative fluorescence median signal [5]: 1225

O=C(Nc1ccc(S(=O)(=O)N2CCC(O)CC2)cc1)c1ccc([N+](=O)[O-])o1 [Compound 7]
EC50 [1]: > 25 µM | T. brucei selectivity index, SI [2]: > 81 | L. amazonensis selectivity index, SI [3]: > 6
